Values quoted from earlier work, collected in patent publication US20020160936A1, “HCV E2 PROTEIN BINDING AGENTS FOR TREATMENT OF HEPATITIS C VIRUS INFECTION” (priority 1999, published 2002).

Test system: hepatitis C virus
Details: subjects with chronic hepatitis C

interferon-alpha
long-term cure rate: less than 10%
